The target in the test is MAGL (recombinant wild-type) (Homo sapiens (Human), UniProt Q99685). Nature of the test: 4-NPA assay: MAGL inhibitory activity by hydrolysis of 4-nitrophenylacetate (absorbance at 405 nm). The format is biochemical. Conditions: measured in 4-NPA assay (footnote [a]); 1 nM MAGL, 300 μM 4-nitrophenylacetate. The protocol: This assay is hereinafter abbreviated “4-NPA assay”.
The plate was shaked for 1 min at 2000 rpm (Variomag Teleshake) and then incubated for 15 min at RT. […] The final concentrations in the assay were 1 nM MAGL and 300 μM 4-Nitrophenylacetate. […] A second measurement was then done after incubation for 80 min at RT. From the two measurements, the slope was calculated by subtracting the first from the second measurement.

Sequence of MAGL (recombinant wild-type) (Q99685 whole entry, species assumed): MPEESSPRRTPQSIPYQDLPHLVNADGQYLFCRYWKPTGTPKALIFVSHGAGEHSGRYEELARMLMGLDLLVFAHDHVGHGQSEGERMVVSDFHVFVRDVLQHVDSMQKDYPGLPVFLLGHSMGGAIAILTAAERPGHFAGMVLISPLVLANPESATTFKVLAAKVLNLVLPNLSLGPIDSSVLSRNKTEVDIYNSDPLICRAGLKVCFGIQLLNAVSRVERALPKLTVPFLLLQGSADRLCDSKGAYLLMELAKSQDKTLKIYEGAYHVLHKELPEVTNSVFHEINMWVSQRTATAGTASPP

A word on the IC50: it is the point on the concentration scale where inhibition reaches its midpoint. For `O=C1CO[C@@H]2CCN(C(=O)N3CCC(COc4ccc(C(F)(F)F)nc4)CC3)C[C@@H]2N1` [Example 42, (4aS,8aR)-6-(4-(((6-(Trifluoromethyl)pyridin-3-yl)oxy)methyl)piperidine-1-carbonyl)hexahydro-2H-pyrido[4,3-b][1,4]oxazin-3(4H)-one], the IC50 turned out to be 1200 nM.

In the case of `O=C1CO[C@H]2CCN(C(=O)N3CCC(COc4ccc(C(F)(F)F)nc4)CC3)C[C@H]2N1` [Example 43, (4aR,8aS)-6-(4-(((6-(trifluoromethyl)pyridin-3-yl)oxy)methyl)piperidine-1-carbonyl)hexahydro-2H-pyrido[4,3-b][1,4]oxazin-3(4H)-one], the IC50 came to 529 nM.

Turning to `O=C1CO[C@H]2CCN(C(=O)N3CCC(Oc4cccc(C(F)(F)F)c4)CC3)C[C@H]2N1` [Example 44], the IC50 worked out at 38 nM.

In the case of `O=C1CO[C@@H]2CCN(C(=O)N3CCC(COc4ccc(OC(F)(F)F)cc4Cl)CC3)C[C@@H]2N1` [Example 45], the IC50 was 850 nM.

As to `O=C1CO[C@H]2CCN(C(=O)N3CCC(COc4ccc(OC(F)(F)F)cc4Cl)CC3)C[C@H]2N1` [Example 46], the IC50 turned out to be 5 nM.

Regarding `O=C1CO[C@H]2CCN(C(=O)N3CC(COc4ccc(C(F)(F)F)cc4F)C3)C[C@H]2N1` [Example 47], the IC50 was 5 nM.

In the case of `CC1(COc2ccc(F)cc2Cl)CCN(C(=O)N2CC[C@H]3OCC(=O)N[C@H]3C2)CC1` [Example 48], the IC50 is 288 nM.

Consider `O=C1CO[C@@H]2CCN(C(=O)N3CCC(COc4ccc(F)cc4F)CC3)C[C@@H]2N1` [Example 49], for which the IC50 was 363 nM.

With `O=C1CO[C@H]2CCN(C(=O)N3CCC(COc4ccc(Cl)cc4F)CC3)C[C@H]2N1` [Example 50], the IC50 is 8 nM.

As for `O=C1CO[C@H]2CCN(C(=O)N3CCC(COc4ccc(F)cc4C(F)(F)F)CC3)C[C@H]2N1` [Example 51], the IC50 stood at 10 nM.

For the molecule `O=C1CO[C@H]2CCN(C(=O)N3CCC(COc4ccc(C(F)(F)F)cc4F)CC3)C[C@H]2N1` [Example 52], the concentration for half-maximal inhibition (IC50) came to 58 nM.

As for `O=C1CO[C@H]2CCN(C(=O)N3CCC(Cc4ccc(C(F)(F)F)cc4N4CCCC4)CC3)C[C@H]2N1` [Example 53], the IC50 came out at 6 nM.

For the molecule `N#Cc1cc(F)ccc1OCC1CCN(C(=O)N2CC[C@@H]3OCC(=O)N[C@@H]3C2)CC1` [Example 55], the IC50 was determined as 79 nM.

In the case of `O=C1CO[C@H]2CCN(C(=O)N3CCN(Cc4ccc(C(F)(F)F)cc4N4CCCC4)CC3)C[C@H]2N1` [Example 56], the IC50 was found to be 42 nM.

In the case of `O=C1CO[C@H]2CCN(C(=O)N3CC(COc4ccc(F)cc4Cl)C3)C[C@H]2N1` [Example 57], the IC50 was 49 nM.

As to `O=C1CO[C@H]2CCN(C(=O)N3CCC(Cc4ccc(C(F)(F)F)cc4C4CCCC4)CC3)C[C@H]2N1` [Example 58], the IC50 stood at 3 nM.

`N#Cc1ccc(OCC2CCN(C(=O)N3CC[C@@H]4OCC(=O)N[C@@H]4C3)CC2)c(Cl)c1` [Example 59]: the IC50 stood at 12 nM.

As to `O=C1CO[C@H]2CCN(C(=O)N3CCC(Cn4cnc(C(F)(F)F)c4)CC3)C[C@H]2N1` [Example 60], the IC50 was 680 nM.

Take `Cc1cc(F)ccc1OCC1CCN(C(=O)N2CC[C@@H]3OCC(=O)N[C@@H]3C2)CC1` [Example 61]: the IC50 stood at 11 nM.

For the molecule `O=C1CO[C@H]2CCN(C(=O)N3CC(COc4ccc(C(F)(F)F)cc4Cl)C3)C[C@H]2N1` [Example 62], the IC50 came out at 9 nM.

Consider `O=C1CO[C@H]2CCN(C(=O)N3CCC(F)(COc4ccc(F)cc4Cl)CC3)C[C@H]2N1` [Example 64, (4aR,8aS)-6-(4-((2-Chloro-4-fluorophenoxy)methyl)-4-fluoropiperidine-1-carbonyl)hexahydro-2H-pyrido[4,3-b][1,4]oxazin-3(4H)-one], for which the IC50 came to 40 nM.

Turning to `CC(C)(C)c1cnn(CC2CCN(C(=O)N3CC[C@@H]4OCC(=O)N[C@@H]4C3)CC2)c1` [Example 66], the IC50 was 351 nM.

Take `C[C@H]1O[C@H]2CCN(C(=O)N3CCC(Cc4ccc(C(F)(F)F)cc4)CC3)C[C@H]2NC1=O` [Example 67]: the IC50 was determined as 120 nM.

Consider `O=C1CO[C@H]2CCN(C(=O)N3CCC(Cc4nc5ccccc5o4)CC3)C[C@H]2N1` [Example 72], for which the IC50 was determined as 108 nM.

For `O=C1CO[C@H]2CCN(C(=O)N3CCC(Oc4ccc(Cl)c(-c5ccc(Cl)cc5)c4)CC3)C[C@H]2N1` [Example 73], the IC50 stood at 8 nM.

Consider `C[C@H]1CN(C(=O)N2CC[C@@H]3OCC(=O)N[C@@H]3C2)CC[C@H]1COc1ccc(F)cc1Cl` [Example 74], for which the IC50 is 3 nM.

`O=C1CO[C@H]2CCN(C(=O)N3CC(OCc4ccc(C(F)(F)F)cc4Cl)C3)C[C@H]2N1` [Example 75]: the IC50 was determined as 2 nM.

With `O=C1CO[C@H]2CCN(C(=O)N3CC(OCc4ccc(C(F)(F)F)cc4)C3)C[C@H]2N1` [Example 76], the IC50 is 8 nM.

As for `O=C1CO[C@H]2CCN(C(=O)N3CC(OCc4ccc(OC(F)(F)F)cc4F)C3)C[C@H]2N1` [Example 77], the IC50 is 16 nM.

For `CC1(COc2ccc(F)cc2Cl)CCN(C(=O)N2CC[C@@H]3OCC(=O)N[C@@H]3C2)CC1` [Example 79, (4aR,8aS)-6-(4-((2-chloro-4-fluorophenoxy)methyl)-4-methylpiperidine-1-carbonyl)hexahydro-2H-pyrido[4,3-b][1,4]oxazin-3(4H)-one], the IC50 is 1 nM.

Consider `O=C1CO[C@H]2CCN(C(=O)N3CCC(Cc4ccc(C(F)(F)F)cc4-c4cn[nH]c4)CC3)C[C@H]2N1` [Example 81], for which the IC50 came to 6 nM.

As for `O=C1CO[C@H]2CCN(C(=O)N3CCC(OCc4ccccc4Cl)C3)C[C@H]2N1` (some centres unmarked) [Example 93], the IC50 was 124 nM.

Take `O=C1CO[C@H]2CCN(C(=O)N3CCC(OCc4cccc(Cl)c4)C3)C[C@H]2N1` (some centres unmarked) [Example 94]: the IC50 was found to be 150 nM.

In the case of `O=C1CO[C@H]2CCN(C(=O)N3CCC(Cc4ccc(C(F)(F)F)cc4C4CC4)CC3)C[C@H]2N1` [Example 95], the IC50 is 8 nM.

Regarding `O=C1CO[C@H]2CCN(C(=O)N3CCC(COc4ccc(Cl)cc4)C3)C[C@H]2N1` (some centres unmarked) [Example 96], the IC50 came out at 293 nM.

`O=C1CO[C@H]2CCN(C(=O)N3CCC(OCc4ccc(Cl)cc4)C3)C[C@H]2N1` (some centres unmarked) [Example 97]: the IC50 was 146 nM.

In the case of `Cc1cc(C(F)(F)F)ccc1CC1CCN(C(=O)N2CC[C@@H]3OCC(=O)N[C@@H]3C2)CC1` [Example 98], the IC50 turned out to be 10 nM.

Turning to `O=C1CO[C@H]2CCN(C(=O)N3CCC(Cc4ccc(C(F)(F)F)cc4Cl)CC3)C[C@H]2N1` [Example 99], the IC50 was found to be 12 nM.

As for `O=C1CO[C@H]2CCN(C(=O)N3CCC(Cc4ccc(C(F)(F)F)cc4)C3)C[C@H]2N1` (some centres unmarked) [Example 100], the IC50 was 82 nM.

In the case of `O=C1CO[C@H]2CCN(C(=O)N3CC(OCc4cc(F)cc(C(F)(F)F)c4)C3)C[C@H]2N1` [Example 101], the IC50 was determined as 11 nM.

For `O=C1CO[C@H]2CCN(C(=O)N3CC(COCc4c(F)cccc4C(F)(F)F)C3)C[C@H]2N1` [Example 102], the IC50 turned out to be 22 nM.

The values are drawn from US11802133B2, “Heterocyclic compounds as monoacylglycerol lipase inhibitors” (Hoffmann-La Roche Inc., priority 2018, dated 2023).
